# Results published in patent USRE44017E1, “N-acetyl aldosamines, N-acetylamino acids and related N-acetyl compounds and their topical use” (priority 1999, dated 2013).
# “And” between values parts separate entries of the source, which are not always exact repeats. Identical values can stand only once.
# Tests used:
# forearm skin = assay: Skin thickness of treated forearm measured by micrometer calipers; assay type: in vivo, human; conditions: for increase in skin thickness: topically twice daily, treated forearm, no change in untreated forearm; for appearance of treated forearm: twice daily, untreated forearm still loose, thin and wrinkled
# Description: In one of the studies related to skin changes associated with aging, skin thickness was measured by micrometer calipers as follows: The skin was grasped with a 2×6 cm metal hinge, the internal faces of the hinge were coated with emery cloth to prevent slippage, and manually squeezed to threshold subject discomfort. Combined thickness of two whole-skin layers including thickness of the two hinge leaves was measured with micrometer calipers. Thickness of the two hinge leaves was subtracted to determine the actual thickness of two whole-skin layers. Triplicate measurements on treated site were done and an average number was used for calculation of the skin thickness.
# itch / pruritus = assay: Topical application to itchy skin or scalp lesions of single subjects; assay type: in vivo, human; conditions: person
# Description: A subject, having an itchy lesion of lichen simplex chronicus on their right lower leg topically applied the above cream to the lesion.
# A typical composition suitable for topical use on hair, scalp, nail and skin comprising for example N-acetylamino acid may be formulated as follows. N-Acetyl-DL-proline 2 g was dissolved in 98 ml solution prepared from water 40 ml, ethanol 40 ml and propylene glycol 20 ml. The composition with pH 2.7 contained 2% N-acetyl-DL-proline. A subject, having itchy scalp topically applied the above composition to itchy area of scalp.
# N-Acetyl-L-lysine 2 g was dissolved in a 98 ml solution prepared from water 40 ml, ethanol 40 ml and propylene glycol 20 ml. The composition with pH 6.5 contained 2% N-acetyl-L-lysine. A subject, having an oily and pruritic scalp topically applied the above composition to the affected area of the scalp, and the area was dried with warm air to remove excess solvents.
# The subject topically applied N-acetyl-DL-proline 5% in oil-in-water cream to the itchy lesions.
# A subject with chronic nummular eczema and pruritic dry skin topically applied N-acetyl-DL-proline 5% in solution to itchy skin areas of eczema and dry skin lesions.
# A subject, having axillary itch due to use of a conventional antiperspirant topically applied N-acetyl-DL-proline 5% in solution to itchy underarm skin areas.
# The subject topically applied N-acetyl-L-glutamine 5% in a solution prepared from water 4 parts, ethanol 4 parts and propylene glycol 2 parts by volume.
# The subject topically applied N-acetyl-α-D-glucosamine 5% in a solution prepared from water 4 parts, ethanol 4 parts and propylene glycol 2 parts by volume.
# [1] = test system: forearm skin (epidermis, papillary dermis); assay: Biological effects of topically applied N-acetyl compound on skin: test chambers on forearm, punch biopsy, histochemical staining; assay type: in vivo, human; conditions: 2% solution in water/propylene glycol, occlusive test chambers renewed twice weekly, five weeks
# Description: In order to determine biological effects of a topically applied N-acetyl compound of the instant invention, seven women and one person of ages ranging from 58 to 81 years participated in this study. Topical formulation for the study was N-acetyl-L-cysteine 2% in a solution prepared from water 80 ml and propylene glycol 20 ml. Test sites were 1 cm square sites on extensor surface of forearm, 5 cm from the antecubital crease, a grid pattern formed by Hayes Test Chambers on Hayes adhesive strips. Each test chamber, 1 cm square, contained a square piece of filter paper which was fully moistened with 0.033 ml test solution. Test chambers were impressed on the skin to leave outlines which were marked with Sanford Sharpie permanent marker. Sites were re-marked at each successive application of test solutions. Vehicle control sites were on the opposite forearm. Filter paper of each chamber was saturated with 0.033 ml solution and chambers were fixed in place with the Hayes adhesive tape that held the test and vehicle chambers. […] Punch biopsy specimens, 3 mm or 4 mm in diameter, were secured at the end of the study, and specimens were processed and analyzed. […] Epidermal thickness was measured with Micro Image Analysis System, and the mean thickness was expressed as area of epidermis/horizontal length. The thickness of papillary dermis (upper dermis) was also measured.
# [2] = ordinary storage conditions; results in a malodorous smell; cited from earlier work
# [3] = test system: xerosis and dry skin on lower legs; assay: Topical treatment of xerosis and dry skin; assay type: in vivo, human; conditions: 5% cream, twice daily, one week, subject
# Source text: A subject who had xerosis and dry skin on lower legs topically applied twice daily 5% N-acetyl-glucosamine cream for one week. After a few days of topical treatment, the skin became less rough and scaly, and felt smooth.
# [4] = test system: adolescent acne with multiple papules and pustules on face; assay: Topical treatment of acne; assay type: in vivo, human; conditions: 5% solution, twice daily, after a few days, subject
# Source text: A subject who had adolescent acne with multiple papules and pustules on their face applied topically twice daily 5% N-acetyl-glucosamine solution.
# [5] = test system: photodamaged / photoaged skin; conditions: cited from earlier work
# [6] = 5% cream, three weeks, one subject per value
# [7] = 2% solution (water/ethanol/propylene glycol), pH 2.7, itchy scalp
# [8] = 5% in oil-in-water cream, chronic Grover's Disease
# [9] = 5% in solution, axillary itch due to antiperspirant
# [10] = 5% in solution, chronic nummular eczema and pruritic dry skin
# [11] = 10% cream, three weeks, one subject per value
# [12] = 5% in solution, acute urticaria
# [13] = 10% cream, four weeks, one subject per value
# [14] = 5% in solution of water 4, ethanol 4, propylene glycol 2 parts, chronic Grover's Disease
# [15] = 2% solution, pH 6.5, oily and pruritic scalp
# [16] = 0.1% cream, topical application for 8 to 12 months (Weiss et al., JAAD 1988)
structure (smiles),measurement,setting,value
CC(=O)NC1CCSC1=O (racemic) [N-acetyl-DL-homocysteine thiolactone],increase in skin thickness,forearm skin; [6],89% and 21%
same,appearance of treated forearm,"forearm skin; 5% cream, three weeks","more firm, smooth, plump and minimally wrinkled when lifted"
CC(=O)N1CCCC1C(=O)O (racemic) [N-acetyl-DL-proline],scalp itch a few minutes after topical application,itch / pruritus; [7],disappeared completely
same,time scalp remained free of itch,itch / pruritus; [7],24 h
same,severe itch a few minutes after topical application,itch / pruritus; [8],disappeared completely
same,time lesions remained free of itch,itch / pruritus; [8],12 h
same,itch within a few minutes after topical application,itch / pruritus; [9],disappeared completely
same,time skin remained free of itch,itch / pruritus; [9],five
same,itch a few minutes after topical application,itch / pruritus; [10],disappeared completely
same,time lesions remained free of itch,itch / pruritus; [10],48 h
CC(=O)NC(Cc1c[nH]c2ccccc12)C(=O)O (racemic) [N-acetyl-DL-tryptophan],increase in skin thickness,"forearm skin; 10% cream, five weeks, one subject",12%
same,increase in skin thickness,forearm skin; [11],11% and 21%
same,appearance of treated forearm,"forearm skin; 10% cream, five weeks","more firm, smooth, plump and minimally wrinkled when lifted"
same,appearance of treated forearm,"forearm skin; 10% cream, three weeks","more firm, smooth, plump and minimally wrinkled when lifted"
CC(=O)N[C@H]1C(O)O[C@H](CO)[C@H](O)[C@@H]1O (stereo partly drawn) [N-acetyl-D-galactosamine],effect on urticarial lesions,itch / pruritus; [12],concomitant disappearance of urticarial lesions
same,severe itch a few minutes after topical application,itch / pruritus; [12],disappeared completely
same,time skin remained free of itch,itch / pruritus; [12],24 h
CC(=O)N[C@@H](CCCNC(=N)N)C(=O)O [N-acetyl-L-arginine],increase in skin thickness,forearm skin; [13],32% and 22%
same,appearance of treated forearm,"forearm skin; 10% cream, four weeks","more firm, smooth, plump and minimally wrinkled when lifted"
COC(=O)[C@H](CS)NC(C)=O [N-acetyl-L-cysteine methyl ester],increase in skin thickness,forearm skin; [6],13% and 87%
same,appearance of treated forearm,"forearm skin; 5% cream, three weeks","more firm, smooth, plump and minimally wrinkled when lifted"
same,increase in skin thickness,forearm skin; [11],26%
same,appearance of treated forearm,"forearm skin; 10% cream, three weeks","more firm, smooth, plump and minimally wrinkled when lifted"
CC(=O)N[C@@H](CS)C(=O)O [N-acetyl-L-cysteine],increase in skin thickness,forearm skin; [6],14%
same,appearance of treated forearm,"forearm skin; 5% cream, three weeks","more firm, smooth, plump and minimally wrinkled when lifted"
same,average increase in thickness of epidermis over the control,"[1]; 8 subjects aged 58 to 81, vehicle control on opposite forearm",96%
same,increase in production of hyaluronic acid in papillary dermis over the control,[1]; all test sites,47-227%
same,stability on storage,[2],degrade under ordinary storage conditions
CC(=O)N[C@@H](CCC(N)=O)C(=O)O [N-acetyl-L-glutamine],severe itch a few minutes after topical application,itch / pruritus; [14],disappeared completely
same,time lesions remained free of itch,itch / pruritus; [14],24 h
CC(=O)N[C@@H](CCCCN)C(=O)O [N-acetyl-L-lysine],scalp itch a few minutes after topical application,itch / pruritus; [15],disappeared completely
same,time scalp remained free of itch,itch / pruritus; [15],12 h
CCOC(=O)[C@H](Cc1ccc(O)cc1)NC(C)=O [N-acetyl-L-tyrosine ethyl ester],increase in skin thickness,forearm skin; [13],11% and 34%
same,appearance of treated forearm,"forearm skin; 10% cream, four weeks","more firm, smooth, plump and minimally wrinkled when lifted"
"CC(=O)N[C@@H]1[C@@H](O)[C@H](O)[C@@H](CO)O[C@@H]1O [N-acetyl-glucosamine, N-Acetyl-α-D-glucosamine]",increase in skin thickness,forearm skin; [11],37%
same,appearance of treated forearm,"forearm skin; 10% cream, three weeks","more firm, smooth, plump and minimally wrinkled when lifted"
same,severe itch a few minutes after topical application,itch / pruritus; [14],disappeared completely
same,time lesions remained free of itch,itch / pruritus; [14],24 h
same,effect on xerosis and dry skin,[3],returned to normal-looking skin
same,effect on acne lesions,[4],most lesions became less inflamed and gradually eradicated
CC1=C(/C=C/C(C)=C/C=C/C(C)=C/C(=O)O)C(C)(C)CCC1 [tretinoin],effect on photodamaged skin,"[5]; 0.05% in a cream, daily topical application (Kligman et al. 1986)",improve photodamaged skin
same,effect on aging skin,[5]; [16],improve clinical signs of aging skin
same,side effects,[5]; [16],burning sensation in the eyes and mild skin irritations
same,patients encountering dermatitis (side-effect),"[5]; 0.1%, daily topical application, 16 weeks (Weiss et al., JAMA 1988)",92%
same,effect on photoaged skin,"[5]; 0.1%, daily topical application, 16 weeks, compared to vehicle alone (Weiss et al., JAMA 1988)",improve photoaged skin
